Assay results: ChEMBL document CHEMBL1201862, “PubChem BioAssay data set” (2004)
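The compound was tested at five concentrations on cells cultured in 96-well plates, with a 48-hour exposure period. GI50 is the concentration that inhibits growth by half.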 Activity calls are given as the source filed them. Cut-off read from the data, not from the text of the source: active = GI50 up to about 1.1 µM and inactive = higher.

How the values were obtained:
Assay in all cases: DTP human tumour cell line panel, 48 h
NCI-H522 = test system: NCI-H522
SNB-75 = test system: SNB-75
NCI-H23 = test system: NCI-H23
A498 = test system: A498
SN12C = test system: SN12C
HCT-116 = test system: HCT-116
OVCAR-3 = test system: OVCAR-3
M14 = test system: M14
SK-MEL-5 = test system: SK-MEL-5
SF-295 = test system: SF-295
HL-60 = test system: HL-60
A549 = test system: A549
K562 = test system: K562
HT-29 = test system: HT-29
SK-MEL-28 = test system: SK-MEL-28
OVCAR-4 = test system: OVCAR-4

Row | Structure (SMILES) | GI50 (NCI-H522) | GI50 (SNB-75) | GI50 (NCI-H23) | GI50 (A498) | GI50 (SN12C) | GI50 (HCT-116) | GI50 (OVCAR-3) | GI50 (M14) | GI50 (SK-MEL-5) | GI50 (SF-295) | GI50 (HL-60) | GI50 (A549) | GI50 (K562) | GI50 (HT-29) | GI50 (SK-MEL-28) | GI50 (OVCAR-4)
1 | CC1(C)C2CCC3(C2)CS(=O)(=O)N2OC231 (stereo unspecified) | 13.8 µM (inactive) | 17 µM (inactive) | 16.6 µM (inactive) | 25.2 µM (inactive) | 16.9 µM (inactive) | 31.3 µM (inactive) | 19.1 µM (inactive) | 16.2 µM (inactive) | 21 µM (inactive) | > 100 µM (inactive) | 15.4 µM (inactive) | > 100 µM (inactive) | 17.4 µM (inactive) | 15.2 µM (inactive) | 25.4 µM (inactive) | –
2 | COCCCNC(=O)CC(=O)NCCCOC | > 100 µM (inactive) | – | > 100 µM (inactive) | > 100 µM (inactive) | > 100 µM (inactive) | > 100 µM (inactive) | > 100 µM (inactive) | > 100 µM (inactive) | > 100 µM (inactive) | > 100 µM (inactive) | > 100 µM (inactive) | > 100 µM (inactive) | > 100 µM (inactive) | > 100 µM (inactive) | > 100 µM (inactive) | > 100 µM (inactive)
3 | Cc1ccc([N+](=O)[O-])cc1NC(=O)/C(CC(=O)c1sc(C(N)=S)nc1C)=N\N | 20.9 µM (inactive) | > 100 µM (inactive) | 31.7 µM (inactive) | > 100 µM (inactive) | – | 71 µM (inactive) | 26.9 µM (inactive) | > 100 µM (inactive) | 90.6 µM (inactive) | 75.7 µM (inactive) | 43.9 µM (inactive) | 46.2 µM (inactive) | 41.4 µM (inactive) | 72.3 µM (inactive) | > 100 µM (inactive) | 31.6 µM (inactive)
4 | COc1cc2cccc(/N=C\c3ccccc3Cl)c2cc1OC | > 100 µM (inactive) | > 100 µM (inactive) | > 100 µM (inactive) | – | > 100 µM (inactive) | 80.7 µM (inactive) | > 100 µM (inactive) | > 100 µM (inactive) | > 100 µM (inactive) | 69 µM (inactive) | 4.48 µM (inactive) | > 100 µM (inactive) | 4.8 µM (inactive) | 79.6 µM (inactive) | > 100 µM (inactive) | > 100 µM (inactive)
5 | COC(=O)C(Cc1ccccc1)NC(=O)Cn1ccnc1[N+](=O)[O-] (stereo unspecified) | > 100 µM (inactive) | 94.8 µM (inactive) | > 100 µM (inactive) | > 100 µM (inactive) | > 100 µM (inactive) | – | > 10 µM (inactive) | > 100 µM (inactive) | 96.6 µM (inactive) | > 100 µM (inactive) | > 100 µM (inactive) | > 100 µM (inactive) | > 100 µM (inactive) | > 100 µM (inactive) | > 100 µM (inactive) | > 100 µM (inactive)
6 | CCOC(=O)N1N=NC2C3OC(C[C@@]3(C#N)OC(C)=O)[C@H]21 (stereo partly specified) | > 100 µM (inactive) | > 100 µM (inactive) | > 100 µM (inactive) | – | > 100 µM (inactive) | > 100 µM (inactive) | > 100 µM (inactive) | > 100 µM (inactive) | > 100 µM (inactive) | > 100 µM (inactive) | > 100 µM (inactive) | > 100 µM (inactive) | > 100 µM (inactive) | > 100 µM (inactive) | > 100 µM (inactive) | > 100 µM (inactive)
7 | COc1cc2c(cc1OC)C1Cc3cc(OC)c(OC)cc3N1CC2 (stereo unspecified) | 12.2 µM (inactive) | 21.4 µM (inactive) | 29.5 µM (inactive) | 40.5 µM (inactive) | 75.2 µM (inactive) | 31.1 µM (inactive) | 31.9 µM (inactive) | 20 µM (inactive) | – | 33.8 µM (inactive) | 20.9 µM (inactive) | 26.9 µM (inactive) | 27.5 µM (inactive) | 40 µM (inactive) | 32.1 µM (inactive) | 18.9 µM (inactive)
8 | C=C=C(Sc1ccccc1)C(C)(C)O | 0.399 µM (active) | 38.6 µM (inactive) | > 100 µM (inactive) | > 100 µM (inactive) | > 100 µM (inactive) | > 100 µM (inactive) | > 100 µM (inactive) | > 100 µM (inactive) | – | > 100 µM (inactive) | > 100 µM (inactive) | – | > 100 µM (inactive) | > 100 µM (inactive) | > 100 µM (inactive) | > 100 µM (inactive)
9 | CCOC(=O)C(C(=O)Cc1ccccc1)c1ccccc1 (stereo unspecified) | > 100 µM (inactive) | 80 µM (inactive) | > 100 µM (inactive) | – | > 100 µM (inactive) | > 100 µM (inactive) | > 100 µM (inactive) | > 100 µM (inactive) | > 100 µM (inactive) | > 100 µM (inactive) | > 100 µM (inactive) | > 100 µM (inactive) | > 100 µM (inactive) | > 100 µM (inactive) | > 100 µM (inactive) | > 100 µM (inactive)
10 | CC(=O)c1c(O)c2c([nH]c1=O)CCCC2 | – | 10.6 µM (inactive) | 41.1 µM (inactive) | – | 22.5 µM (inactive) | – | > 100 µM (inactive) | 39.3 µM (inactive) | – | 15.7 µM (inactive) | 48.3 µM (inactive) | 30 µM (inactive) | > 100 µM (inactive) | 24.2 µM (inactive) | 94.4 µM (inactive) | > 100 µM (inactive)
11 | O=C(Cc1ccccc1)N/N=C(/c1nc2ccc([N+](=O)[O-])cc2nc1O)C(O)c1ccc(C(O)/C(=N/NC(=O)Cc2ccccc2)c2nc3ccc([N+](=O)[O-])cc3nc2O)cc1 (stereo unspecified) | 3.3 µM (inactive) | 31.3 µM (inactive) | > 100 µM (inactive) | > 100 µM (inactive) | > 100 µM (inactive) | 48.8 µM (inactive) | 20.7 µM (inactive) | 40.6 µM (inactive) | – | 44.9 µM (inactive) | 7.01 µM (inactive) | 50.9 µM (inactive) | 12.4 µM (inactive) | 53.8 µM (inactive) | > 100 µM (inactive) | > 100 µM (inactive)
12 | N#CC1(C2CC(=O)N(c3ccccc3)C2=O)CCCCC1=O (stereo unspecified) | – | > 100 µM (inactive) | > 100 µM (inactive) | – | 0.791 µM (active) | – | > 100 µM (inactive) | > 100 µM (inactive) | > 100 µM (inactive) | > 100 µM (inactive) | > 100 µM (inactive) | > 100 µM (inactive) | > 100 µM (inactive) | > 100 µM (inactive) | > 100 µM (inactive) | > 100 µM (inactive)
13 | CCOC(=O)c1[nH]c2cc(OC)c(OC)cc2c1CN(C)C | – | 67 µM (inactive) | > 100 µM (inactive) | > 100 µM (inactive) | > 100 µM (inactive) | > 100 µM (inactive) | – | > 100 µM (inactive) | > 100 µM (inactive) | > 100 µM (inactive) | > 100 µM (inactive) | > 100 µM (inactive) | > 100 µM (inactive) | > 100 µM (inactive) | > 100 µM (inactive) | > 100 µM (inactive)
14 | CCNC(=O)O/N=C1\CCC2[C@@H]3CC=C4C[C@@H](OC5CCCCO5)CC[C@]4(C)C3CC[C@]12C (stereo partly specified) | 1.51 µM (inactive) | 1.91 µM (inactive) | 2.72 µM (inactive) | 34 µM (inactive) | 2.12 µM (inactive) | 4.8 µM (inactive) | 2.59 µM (inactive) | 1.71 µM (inactive) | 2.28 µM (inactive) | 2.17 µM (inactive) | – | 2.74 µM (inactive) | 1.37 µM (inactive) | 3.16 µM (inactive) | 3.19 µM (inactive) | 1.47 µM (inactive)
15 | CCCCCC[C@@H]1CCC2C(CO)[C@@H](O)CC[C@@H]2C1 (stereo partly specified) | 16.3 µM (inactive) | 22.8 µM (inactive) | 16 µM (inactive) | – | 16.6 µM (inactive) | 17.6 µM (inactive) | 15.8 µM (inactive) | 17.5 µM (inactive) | 20 µM (inactive) | 16.2 µM (inactive) | – | 17.4 µM (inactive) | 21.3 µM (inactive) | 18.2 µM (inactive) | 19.6 µM (inactive) | 16.3 µM (inactive)
16 | COc1cc(C(=O)NO)ccc1O | > 100 µM (inactive) | > 100 µM (inactive) | > 100 µM (inactive) | > 100 µM (inactive) | > 100 µM (inactive) | > 100 µM (inactive) | > 100 µM (inactive) | > 100 µM (inactive) | – | > 100 µM (inactive) | > 100 µM (inactive) | > 100 µM (inactive) | > 100 µM (inactive) | > 100 µM (inactive) | > 100 µM (inactive) | > 100 µM (inactive)
17 | C=CCNC(=S)N1CC(C)C(=O)Nc2ccccc21 (stereo unspecified) | > 100 µM (inactive) | 35.5 µM (inactive) | > 100 µM (inactive) | – | > 100 µM (inactive) | > 100 µM (inactive) | > 100 µM (inactive) | > 100 µM (inactive) | > 100 µM (inactive) | > 100 µM (inactive) | > 100 µM (inactive) | > 100 µM (inactive) | > 100 µM (inactive) | > 100 µM (inactive) | > 100 µM (inactive) | > 100 µM (inactive)
18 | CC(=O)c1cccc(NC(=O)/C(=N\NC(C)(C)C)c2c(O)c3ccccc3oc2=O)c1 | > 100 µM (inactive) | 39.2 µM (inactive) | > 100 µM (inactive) | – | > 100 µM (inactive) | > 100 µM (inactive) | > 100 µM (inactive) | > 100 µM (inactive) | > 100 µM (inactive) | > 100 µM (inactive) | > 100 µM (inactive) | > 100 µM (inactive) | – | 53.2 µM (inactive) | > 100 µM (inactive) | > 100 µM (inactive)
19 | Cc1occ2c1C(=O)CC1C2[C@@H](O)CC2C(C)(C)CCC[C@]12C (stereo partly specified) | 56.5 µM (inactive) | > 100 µM (inactive) | > 100 µM (inactive) | > 100 µM (inactive) | > 100 µM (inactive) | > 100 µM (inactive) | – | > 100 µM (inactive) | > 100 µM (inactive) | > 100 µM (inactive) | 44.7 µM (inactive) | > 100 µM (inactive) | > 100 µM (inactive) | > 100 µM (inactive) | > 100 µM (inactive) | 98.9 µM (inactive)
